# Measurements taken from the RepoRT retention time repository (doi:10.1039/c4mb00346b).
# Assay: HILIC, Merck SeQuant ZIC-pHILIC, 150 × 2.1 mm, 5 µm, 0.1 mL/min, estimated dead time 3.3 min; A: acetonitrile; B: water + 10 mM ammonium carbonate; gradient (min/%B) 0/20 30/80
# Conditions: stereoisomer not certain
row,LC retention time [min],Compound
1,7.6,O=c1[nH]cnc2nc[nH]c12 [Hypoxanthine]
2,7.6,CC(C)CC(N)C(=O)O (stereo not drawn) [Leucine]
3,11.2,Nc1ncnc2c1ncn2C1OC(CSCCC([NH3+])C(=O)[O-])C(O)C1O (stereo not drawn) [S-Adenosyl-homocysteine]
4,10.2,O=C(O)C1CCCN1 (stereo not drawn) [Proline]
5,10.9,C[N+](C)(C)CCCC(=O)O [Butyro-betaine]
6,6,C[N+](C)(C)C(Cc1c[nH]c2ccccc12)C(=O)[O-] (stereo not drawn) [Trimethyl-tryptophan (hypaphorine)]
7,4.4,CCC(C)C(NC(C)=O)C(=O)O (stereo not drawn) [N-Acetyl-(iso)leucine]
8,15.5,Nc1nc2c(ncn2C2OC(COP(=O)(O)OP(=O)(O)O)C(O)C2O)c(=O)[nH]1 (stereo not drawn) [GDP]
9,11.1,Cn1cnc2c(ncn2C2OC(CO)C(O)C2O)c1=N (stereo not drawn) [1-Methyl-adenosine]
10,13.2,O=CC(O)COP(=O)(O)O (stereo not drawn) [Glyceraldehyde-3-phosphate]
11,12.1,NCCS(=O)(=O)O [Taurine]
12,12.4,NC(=O)CC(N)C(=O)O (stereo not drawn) [Asparagine]
13,6.9,CN1CC(=O)NC1=N [Creatinine]
14,15.5,O=C(O)CC(O)(CC(=O)O)C(=O)O [Citrate]
15,11.7,CC(C)(COP(=O)(O)OP(=O)(O)OCC1OC(n2cnc3c(N)ncnc32)C(O)C1OP(=O)(O)O)C(O)C(=O)NCCC(=O)NCCS (stereo not drawn) [CoA]
16,15.6,O=C(O)C(COP(=O)(O)O)OP(=O)(O)O (stereo not drawn) [Diphospho-glycerate]
17,10.5,CC(=O)SCCNC(=O)CCNC(=O)C(O)C(C)(C)COP(=O)(O)OP(=O)(O)OCC1OC(n2cnc3c(N)ncnc32)C(O)C1OP(=O)(O)O (stereo not drawn) [Acetyl-CoA]
18,12.4,Nc1ncnc2c1ncn2C1OC(COP(=O)(O)OP(=O)(O)O)C(O)C1O (stereo not drawn) [ADP]
19,10.1,O=C(O)C(O)CO (stereo not drawn) [Glyceric acid]
20,8,Nc1ccccc1C(=O)CC(N)C(=O)O (stereo not drawn) [Kynurenine]
21,12.2,NC(=O)CCC(N)C(=O)O (stereo not drawn) [Glutamine]

row,LC retention time [min],Compound
1,12.7,NC(=O)c1ncn(C2OC(COP(=O)(O)O)C(O)C2O)c1N (stereo not drawn) [AICAR]
2,15,NC(CCC(=O)NC(CSSCC(NC(=O)CCC(N)C(=O)O)C(=O)NCC(=O)O)C(=O)NCC(=O)O)C(=O)O (stereo not drawn) [Glutathione disulfide (GSSG)]
3,12.7,O=C(O)c1cccnc1C(=O)O [Quinolinic acid]
4,13,NC(=O)NCCCC(N)C(=O)O (stereo not drawn) [Citrulline]
5,13.1,NC(CO)C(=O)O (stereo not drawn) [Serine]
6,14.2,NC(=NCCCC(N)C(=O)O)NC(CC(=O)O)C(=O)O (stereo not drawn) [Arginino-succinate]
7,13.8,Nc1ncnc2c1ncn2C1OC(COP(=O)(O)OP(=O)(O)OP(=O)(O)O)C(O)C1O (stereo not drawn) [ATP]
8,11.9,NC(=O)c1ccc[n+](C2OC(COP(=O)(O)OP(=O)(O)OCC3OC(n4cnc5c(N)ncnc54)C(O)C3O)C(O)C2O)c1 (stereo not drawn) [NAD+]
9,10.6,Nc1ncnc2c1ncn2C1OC(CSCC(N)C(=O)O)C(O)C1O (stereo not drawn) [S-adenosyl-cysteine]
10,15.5,Nc1ccn(C2OC(COP(=O)(O)OP(=O)(O)OP(=O)(O)O)C(O)C2O)c(=O)n1 (stereo not drawn) [CTP]
11,12,NC(Cc1cnc[nH]1)C(=O)O (stereo not drawn) [Histidine]
12,12.5,NC(CC(=O)O)C(=O)O (stereo not drawn) [Aspartate]
13,6.2,Nc1ncnc2c1ncn2C1OC(CO)C(O)C1O (stereo not drawn) [Adenosine]
14,24.8,NCCc1cnc[nH]1 [Histamine]
15,14,O=c1ccn(C2OC(COP(=O)(O)OP(=O)(O)O)C(O)C2O)c(=O)[nH]1 (stereo not drawn) [UDP]
16,13.1,O=C(O)C=CC(=O)O [Fumarate]
17,15.5,Nc1nc2c(ncn2C2OC(COP(=O)(O)OP(=O)(O)OC3OC(CO)C(O)C(O)C3O)C(O)C2O)c(=O)[nH]1 (stereo not drawn) [GDP-glucose]
18,13.6,OCC1OC(OC2OC(CO)C(O)C(O)C2O)C(O)C(O)C1O (stereo not drawn) [Trehalose]
19,8.2,O=c1[nH]cnc2c1ncn2C1OC(CO)C(O)C1O (stereo not drawn) [Inosine]
20,19.2,CN(C)CCCCC(N)C(=O)O (stereo not drawn) [Dimethyl-lysine]
21,15.1,O=c1ccn(C2OC(COP(=O)(O)OP(=O)(O)OP(=O)(O)O)C(O)C2O)c(=O)[nH]1 (stereo not drawn) [UTP]

row,Compound,LC retention time [min]
1,Nc1c(C(=O)NC(CC(=O)O)C(=O)O)ncn1C1OC(COP(=O)(O)O)C(O)C1O (stereo not drawn) [SAICAR],17.1
